From patent publication US8277810B2, “Antagonist anti-CD40 antibodies” (Novartis Vaccines & Diagnostics, Inc., priority 2003, dated 2012)

What was measured:
Namalwa tumors = assay: Staged human NHL Namalwa xenograft model; type: in vivo, T cell-deficient nude mice; conditions: CHIR-12.12 1 mg/kg ip once a week for 4 weeks; IL-2 0.5 mg/kg sc daily for 8 days; N=10 mice/group
From the text: Therefore, the component of these mAbs' anti-tumor activity based on blocking the tumor proliferation/survival signal is not expected to contribute to anti-tumore efficacy in these models.
To ensure consistent tumor growth, T cell-deficient nude mice were whole-body irradiated at 3 Gy to further suppress the immune system one day before tumor inoculation. Tumor cells were inoculated subcutaneously in the right flank at 5×10^6 cells per mouse. Treatment was initiated when tumor volume reached about 100-200 mm^3 (about 7 days after tumor inoculation). […] Tumor volumes were recorded twice a week. Data were analyzed using ANOVA.

IM-9 tumor cells [1] = assay: IM-9 multiple myeloma xenograft, unstaged conditional survival model; parameters: species or system SCID mice; conditions: mouse, in vivo
Description: (§1) SCID mice were inoculated subcutaneously with IM-9 tumor cells (a human multiple myeloma cell line expressing both CD40 and CD20) in 50% […]™ at 5×10^6 cells per mouse. In unstaged models, treatment was initiated one day after tumor implantation. In staged models, treatment was initiated when tumor volume reached 150-200 mm^3. Tumor-bearing mice were injected with anti-CD40 mAb intraperitoneally once a week at the indicated doses. Data were analyzed using the log-rank test.

IM-9 tumor cells [2] = assay: IM-9 multiple myeloma xenograft, staged subcutaneous model; type: in vivo, SCID mice
Description: as §1, with “Tumor-bearing mice were injected with anti-CD40 mAb intraperitoneally once a week at the indicated doses.” left out

Compound | growth of Namalwa tumors, single agent (Namalwa tumors) | outcome of treated group (IM-9 tumor cells [1]) | tumor growth inhibition (IM-9 tumor cells [2]; 0.5 mg/kg twice a week) | tumor growth inhibition (IM-9 tumor cells [2]; MTD 1 mg/kg twice a week) [%]
IL-2: IL-2 used in the xenograft example; b966 says des-alanyl-1, serine-125 human IL-2 is used in the examples | inhibited the growth of Namalwa tumors | – | – | –
CC(C)C[C@H](NC(=O)[C@H](Cc1ccccc1)NC(=O)c1cnccn1)B(O)O [bortezomib] | – | euthanized between day 18 and day 26 | did not inhibit tumor growth | 30
